Assay results: patent EP0572365A2, “Heteroprostanoids, process for their production and therapeutical use thereof” (NUOVO CONSORZIO SANITARIO NAZIONALE del Dott. Paolo Malizia …, priority 1992, dated 1993)

Assay: Stability assay: storage of buffered water solutions, residual activity measured in the thrombocyte aggregation assay
Type: physicochemical
Conditions: room temperature, water solution buffered at pH 7
Description: The stability of some compounds according to the present invention has been compared with that of a natural prostaglandine through storage at room temperature of water solutions buffered at pH 7, by measuring the residual activity in the assay of thrombocyte aggregation at different times; the results, listed in Table III, show a much greater stability: […]

SMILES | residual activity in the assay of thrombocyte aggregation (7 gg) | residual activity in the assay of thrombocyte aggregation (1h) | residual activity in the assay of thrombocyte aggregation (12h) | residual activity in the assay of thrombocyte aggregation (24h)
CCCCCNC(=O)CN1CCC[C@H]1C(=O)OCCCCC(=O)O [III (X₂=R₂=R₆=CH₂, R₄=CO, R=H, n=4, m=3), L-7-14-dioxo-12,15-diaza-6-oxa-prostanoic acid] | 7 gg: 4 | 1h: 98 | 12h: 78 | 24h: 62
CCCCC[C@H](O)/C=C/[C@H]1[C@H](O)CC(=O)[C@@H]1CCCCCCC(=O)O [PGE₁, Alprostadil, reference compound] | 7 gg: 0 | 1h: 30 | 12h: 2 | 24h: 0
CCCCC(=O)NCC(=O)N1CCC[C@H]1C(=O)OCCCCC(=O)O [III (X₂R₄=CH₂, R₂=R₆=CO, R=H, n=4, m=3), L-7,13,16-trioxo-12,15-diaza-6-oxa-prostanoic] | 7 gg: 15 | 1h: 100 | 12h: 92 | 24h: 80
